The subject of this assay is Jurkat. Briefly: Induction of calcium ion mobilization in intact Jurkat cells. As to conditions: Homo sapiens. The assay is classed as functional, cell-based.

The structures appear in SMILES notation. The source made the active and inactive calls. The calls are words filed in the database; no cut-off is given here.

Take `O=c1c2nc(-c3ccccc3)n3c2ncn1[C@@H]1O[C@H](COP(=O)(O)OP(=O)(O)OC[C@H]2O[C@@H]3[C@H](O)[C@@H]2O)[C@@H](O)[C@H]1O`: the outcome was Active.

`O=c1c2nc(I)n3c2ncn1[C@@H]1O[C@H](COP(=O)(O)OP(=O)(O)OC[C@H]2O[C@@H]3[C@H](O)[C@@H]2O)[C@@H](O)[C@H]1O`: the outcome was Active.

The values above are taken from ChEMBL document CHEMBL1146845, “Structural determinants for N1/N7 cyclization of nicotinamide hypoxanthine 5'-dinucleotide (NHD+) derivatives by ADP-ribosyl cyclase from aplysia californica: Ca2+-mobilizing activity of 8-substituted cyclic inosine 5'-diphosphoribose analogues in T-lymphocytes” (J Med Chem, 2006).
